Measurements: patent publication US8420851B2, “Selective TR-β 1 agonist” (Cadila Healthcare Limited, priority 2006, dated 2013)

Legend:
TR-β = biological target: T1, TR-β (Homo sapiens, UniProt P10828); assay: In vitro TR-β activity (in-house protocol); format: cell-based; conditions: for fold induction at 0.001 µM: Conc. 1 nM; for fold induction at 0.001 µM / fold induction at 0.01 µM / fold induction at 0.1 µM / fold induction at 1 µM: read-out: TR-β Fold Induction w.r.t T3(100 nm); for fold induction at 0.01 µM: Conc. 10 nM; for fold induction at 0.1 µM: Conc. 100 nM; for fold induction at 1 µM: Conc. 1000 nM
T1 sequence (P10828 1-461): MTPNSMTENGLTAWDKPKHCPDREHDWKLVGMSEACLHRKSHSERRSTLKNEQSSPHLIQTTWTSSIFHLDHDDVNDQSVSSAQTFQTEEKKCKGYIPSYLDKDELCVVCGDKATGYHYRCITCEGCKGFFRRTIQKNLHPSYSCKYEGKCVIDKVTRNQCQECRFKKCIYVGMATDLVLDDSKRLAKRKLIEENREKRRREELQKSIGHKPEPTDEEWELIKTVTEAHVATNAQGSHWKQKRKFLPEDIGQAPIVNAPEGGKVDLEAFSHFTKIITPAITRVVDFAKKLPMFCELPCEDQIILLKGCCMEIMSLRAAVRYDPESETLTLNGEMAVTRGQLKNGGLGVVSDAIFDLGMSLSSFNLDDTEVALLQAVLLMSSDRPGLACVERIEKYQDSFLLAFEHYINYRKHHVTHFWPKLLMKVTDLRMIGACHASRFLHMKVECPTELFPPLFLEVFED
Protocol: (§1) Invitro TR-α & TR-β activities were determined as per in-house protocols and the results of representative compounds are provided in tables 1 & 2 below as a proof of the efficacies of the novel class of compounds disclosed above.

TR-α = biological target: T2, TR-α (Homo sapiens, UniProt P10827); assay: In vitro TR-α activity (in-house protocol); format: cell-based
T2 sequence (P10827 1-410 isoform P10827-2): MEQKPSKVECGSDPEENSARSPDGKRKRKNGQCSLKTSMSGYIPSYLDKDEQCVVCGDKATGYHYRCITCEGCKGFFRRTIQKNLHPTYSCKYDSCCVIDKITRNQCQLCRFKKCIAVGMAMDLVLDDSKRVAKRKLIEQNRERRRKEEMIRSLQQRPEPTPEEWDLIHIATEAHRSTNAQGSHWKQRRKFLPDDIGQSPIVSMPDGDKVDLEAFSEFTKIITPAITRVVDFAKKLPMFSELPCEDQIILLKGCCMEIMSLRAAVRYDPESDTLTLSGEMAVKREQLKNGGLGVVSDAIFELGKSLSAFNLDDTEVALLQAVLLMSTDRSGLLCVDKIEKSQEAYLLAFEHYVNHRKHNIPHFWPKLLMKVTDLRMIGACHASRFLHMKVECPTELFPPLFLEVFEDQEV
Protocol: as §1

Row | SMILES | EC50 (TR-β) | EC50 (TR-α) | fold induction at 0.001 µM (TR-β) | fold induction at 0.01 µM (TR-β) | fold induction at 0.1 µM (TR-β) | fold induction at 1 µM (TR-β) | TR-α Fold Induction w.r.t T3(100 nm) (TR-α; Conc. 1 nM) | TR-α Fold Induction w.r.t T3(100 nm) (TR-α; Conc. 10 nM) | TR-α Fold Induction w.r.t T3(100 nm) (TR-α; Conc. 100 nM) | TR-α Fold Induction w.r.t T3(100 nm) (TR-α; Conc. 1000 nM)
1 | O=C(O)CN(C(=O)Oc1ccc(O)cc1)c1cc(Cl)c(Oc2ccc(O)c(-c3ccccc3)c2)c(Cl)c1 [Example 49, [[3,5-Dichloro-4-(6-hydroxy-biphenyl-3-yloxy)-phenyl]-(4-hydroxy-phenoxycarbonyl)-amino]-acetic acid] | 10.3 nM | 38 nM | – | – | – | – | – | – | – | –
2 | O=C(O)CN(C(=O)Oc1ccc(O)cc1)c1cc(Br)c(Oc2ccc(O)c(S(=O)(=O)NC3CC4CCC3C4)c2)c(Br)c1 (centres unmarked) [Example 53, [{4-[3-(Bicyclo[2.2.1]hept-2-ylsulfamoyl)-4-hydroxy-phenoxy]-3,5-dibromo-phenyl}-(4-hydroxy-phenoxycarbonyl)-amino]-acetic acid] | – | – | 11 | 12.9 | 27 | 91.7 | 11.19 | 12.00 | 17.15 | 50.30
3 | CCC(C)c1cc(Oc2c(Cl)cc(N(CC(=O)O)C(=O)Oc3ccc(O)cc3)cc2Cl)ccc1O (centres unmarked) [Example 23, [[4-(3-sec-Butyl-4-hydroxy-phenoxy)-3,5-dichloro-phenyl]-(4-hydroxy-phenoxycarbonyl)-amino]-acetic acid] | 2.6 nM | 9.26 nM | – | – | – | – | – | – | – | –
4 | CCOC(=O)N(CC(=O)O)c1cc(Cl)c(Oc2ccc(O)c(C(=O)c3ccc(Cl)s3)c2)c(Cl)c1 [Example 17, ({3,5-Dichloro-4-[3-(5-chloro-thiophene-2-carbonyl)-4-hydroxy-phenoxy]-phenyl}-ethoxycarbonyl-amino)-acetic acid] | – | – | – | 27.7 | 72.8 | 77.9 | – | 21.19 | 51.82 | 53.12
5 | O=C(O)CN(C(=O)Oc1ccc(O)cc1)c1cc(Cl)c(Oc2ccc(O)c(S(=O)(=O)N3CCCCCC3)c2)c(Cl)c1 [Example 57, [{4-[3-(Azepane-1-sulfonyl)-4-hydroxy-phenoxy]-3,5-dichloro-phenyl}-(4-hydroxy-phenoxycarbonyl)-amino]-acetic acid] | – | – | 12.6 | 14.8 | 23.6 | 62.5 | 21.61 | 24.62 | 35.93 | 60.40
6 | CCOC(=O)N(CC(=O)O)c1cc(Cl)c(Oc2ccc(O)c(C(=O)c3ccc(C(C)(C)C)cc3)c2)c(Cl)c1 [Example 24, ({4-[3-(4-tert-Butyl-benzoyl)-4-hydroxy-phenoxy]-3,5-dichloro-phenyl}-ethoxycarbonyl-amino)-acetic acid] | – | – | 20 | 40 | 100 | 75 | 10.00 | 20.00 | 50.00 | 70.00
7 | Cc1cccc(C(=O)c2cc(Oc3c(Cl)cc(N(CC(=O)O)C(=O)Oc4ccc(O)cc4)cc3Cl)ccc2O)c1 [Example 66, [{3,5-Dichloro-4-[4-hydroxy-3-(3-methyl-benzoyl)-phenoxy]-phenyl}-(4-hydroxy-phenoxycarbonyl)-amino]-acetic acid] | – | – | 36.7 | 25.9 | 40.7 | 55.2 | 20.56 | 15.36 | 18.11 | 25.75
8 | O=C(O)CN(C(=O)Oc1ccc(O)cc1)c1cc(Cl)c(Oc2ccc(O)c(C(O)c3ccc(Cl)cc3)c2)c(Cl)c1 (centres unmarked) [Example 56, [(3,5-Dichloro-4-{3-[(4-chloro-phenyl)-hydroxy-methyl]-4-hydroxy-phenoxy}-phenyl)-(4-hydroxy-phenoxycarbonyl)-amino]-acetic acid] | 20.4 nM | 13.4 nM | – | – | – | – | – | – | – | –
